This note sets out measurements from patent US9309242B2, “Substituted pyrido[2,3-b]pyrazines as FGFR kinase inhibitors” (priority 2011, dated 2016).

The target of one assay is FGFR1 (h) (Homo sapiens, UniProt P11362). The assay is described as follows: FGFR1 (enzymatic assay), TR-FRET. Format: biochemical. The settings on record: read-out: FGFR 1 pIC50 (converted). For orientation: Time-resolved FRET reads energy transfer from a long-lived donor to a nearby acceptor.
In assay [1] the test system is Ba/F3-FGFR3-transfected cells. The assay can be described thus: Ba/F3-FGFR3 (plus IL3) cellular proliferation assay, counterscreen with 10 ng/ml murine IL3. Format: cell-based. The settings on record: plus IL3 (10 ng/ml murine IL3, counterscreen); read-out: BAF3-FGFR3 (PLUS IL3) pIC50 (converted). The procedure, abridged: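 With or without 10 ng/ml murine IL3, FGFR3-dependent Ba/F3 cells were treated 24 h with compound, then viability was gauged by Alamar Blue fluorescence after 4 h (ex 540/em 590 nm).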

For assay [2], the target named is Ba/F3-FGFR4-transfected cells (Homo sapiens, UniProt P22455). The assay is described as follows: Ba/F3-FGFR4 cellular proliferation assay, Alamar Blue. Format: cell-based. The method, boiled down:
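Fluorescence read-out (ex. 540 nm, em. 590 nm) of resazurin-based Alamar Blue after 4 h, following 24 h compound exposure of Ba/F3-FGFR4-transfected cells (20000/well) at 37° C, 5% CO2.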
For orientation: Alamar Blue is a resazurin reagent that responds to reducing activity.

A value given as a limit tells only on which side of the number the result lay.

Ba/F3-FGFR4-transfected cells, sequence (P22455 whole entry, change not shown): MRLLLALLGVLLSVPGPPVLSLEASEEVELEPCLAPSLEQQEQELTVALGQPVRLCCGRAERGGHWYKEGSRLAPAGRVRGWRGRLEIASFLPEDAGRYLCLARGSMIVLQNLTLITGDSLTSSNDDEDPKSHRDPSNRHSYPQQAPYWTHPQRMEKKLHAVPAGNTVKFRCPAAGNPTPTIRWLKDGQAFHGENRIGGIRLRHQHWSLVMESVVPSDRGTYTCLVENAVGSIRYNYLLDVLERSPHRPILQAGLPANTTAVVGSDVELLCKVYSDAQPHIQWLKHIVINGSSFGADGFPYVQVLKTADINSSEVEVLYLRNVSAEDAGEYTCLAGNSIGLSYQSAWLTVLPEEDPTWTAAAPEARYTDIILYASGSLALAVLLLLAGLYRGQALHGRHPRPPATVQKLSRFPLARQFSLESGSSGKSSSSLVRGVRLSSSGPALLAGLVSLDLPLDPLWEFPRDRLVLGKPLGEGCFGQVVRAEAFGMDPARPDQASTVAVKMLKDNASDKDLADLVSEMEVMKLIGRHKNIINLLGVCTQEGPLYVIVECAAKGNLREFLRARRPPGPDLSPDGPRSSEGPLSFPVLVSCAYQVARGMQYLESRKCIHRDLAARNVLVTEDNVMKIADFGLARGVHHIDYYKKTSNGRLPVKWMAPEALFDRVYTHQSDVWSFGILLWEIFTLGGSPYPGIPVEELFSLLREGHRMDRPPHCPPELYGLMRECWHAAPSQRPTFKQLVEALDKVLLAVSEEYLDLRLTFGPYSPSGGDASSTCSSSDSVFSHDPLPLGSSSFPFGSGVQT
FGFR1 (h), sequence (P11362 22-822): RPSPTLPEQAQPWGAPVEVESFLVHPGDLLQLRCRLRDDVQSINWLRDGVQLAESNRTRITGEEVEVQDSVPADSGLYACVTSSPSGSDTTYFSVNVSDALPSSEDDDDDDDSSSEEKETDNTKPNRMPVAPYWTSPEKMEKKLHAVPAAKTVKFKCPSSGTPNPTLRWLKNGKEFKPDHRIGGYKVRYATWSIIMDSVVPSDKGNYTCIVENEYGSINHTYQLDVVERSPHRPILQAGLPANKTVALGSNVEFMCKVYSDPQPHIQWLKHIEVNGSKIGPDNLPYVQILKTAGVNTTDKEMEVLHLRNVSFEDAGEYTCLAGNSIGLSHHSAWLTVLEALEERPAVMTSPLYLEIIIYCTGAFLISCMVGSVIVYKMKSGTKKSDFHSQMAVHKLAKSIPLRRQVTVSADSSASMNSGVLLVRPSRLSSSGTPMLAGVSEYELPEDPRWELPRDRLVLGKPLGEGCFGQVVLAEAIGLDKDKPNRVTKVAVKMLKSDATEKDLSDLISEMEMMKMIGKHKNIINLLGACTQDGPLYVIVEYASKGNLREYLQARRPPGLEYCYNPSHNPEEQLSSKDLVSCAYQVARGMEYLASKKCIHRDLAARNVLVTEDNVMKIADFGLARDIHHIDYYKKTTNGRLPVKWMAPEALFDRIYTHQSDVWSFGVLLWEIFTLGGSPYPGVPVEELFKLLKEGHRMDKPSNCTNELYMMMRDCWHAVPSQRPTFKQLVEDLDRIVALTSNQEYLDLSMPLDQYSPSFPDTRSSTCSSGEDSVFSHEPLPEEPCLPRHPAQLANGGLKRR

In the case of `COc1cc(/N=c2\ccc3ncc(-c4cnn(C)c4)nc3n2Cc2cnn(C)c2)c(F)c(OC)c1` [Compound 196], the IC50 on FGFR1 (h) was 0.407 nM; in assay [1] it was greater than 10000 nM. In addition, the “BAF3-FGFR4 pIC50” value in assay [2] is roughly 8.62.

As to `COc1cc(OC)cc(N(Cc2nn[nH]n2)c2ccc3ncc(-c4cnn(C)c4)nc3n2)c1` [Compound 197], the values for the IC50 (at FGFR1 (h); in assay [1]) were 22.4 nM and greater than 10000 nM, respectively. The “BAF3-FGFR4 pIC50” value in assay [2] was less than 5.

Turning to `COc1cc(OC)cc(N(Cc2ncc[nH]2)c2ccc3ncc(-c4ccn(C)c4)nc3n2)c1` [Compound 198], the IC50 is 0.309 nM at FGFR1 (h) and greater than 10000 nM in assay [1]. In addition, the “BAF3-FGFR4 pIC50” value in assay [2] is given as 8.05.

As to `COc1cc(OC)c(F)c(N(Cc2ncc[nH]2)c2ccc3ncc(-c4ccccc4)nc3n2)c1` [Compound 200], the IC50 on FGFR1 (h) is 0.537 nM; in assay [1] it was greater than 10000 nM. Besides, the “BAF3-FGFR4 pIC50” value in assay [2] is recorded as 7.33.

As to `COc1cc(OC)cc(N(Cc2ncc[nH]2)c2ccc3ncc(-c4ccncc4)nc3n2)c1` [Compound 202], the IC50 at FGFR1 (h) is 1.12 nM; in assay [1], greater than 10000 nM. The “BAF3-FGFR4 pIC50” value in assay [2] stood at 6.81.

For the compound `COc1cc(OC)cc(N(Cc2nncn2CCO)c2ccc3ncc(-c4cnn(C)c4)nc3n2)c1` [Compound 204], the IC50 on FGFR1 (h) was 11.2 nM; in assay [1], greater than 10000 nM. Moreover, the “BAF3-FGFR4 pIC50” value in assay [2] turned out to be 5.49.

For the compound `COc1cc(OC)cc(N(Cc2ncn(CCO)n2)c2ccc3ncc(-c4cnn(C)c4)nc3n2)c1` [Compound 205], the IC50 is 3.89 nM on FGFR1 (h) and greater than 10000 nM in assay [1]. In assay [2], the “BAF3-FGFR4 pIC50” value is given as 5.62.

With `CCOCc1c[nH]c(CN(c2ccc3ncc(-c4cnn(C)c4)nc3n2)c2cc(OC)cc(OC)c2F)n1` [Compound 206], the IC50 at FGFR1 (h) was 1.38 nM; in assay [1] it was greater than 10000 nM. In assay [2], the “BAF3-FGFR4 pIC50” value stood at 7.34.

Consider `COc1cc(OC)c(F)c(N(Cc2ncc[nH]2)c2ccc3ncc(-c4cnn(C(CO)CCl)c4)nc3n2)c1` (stereo not drawn) [Compound 209], for which the IC50 at FGFR1 (h) is 0.776 nM; in assay [1], greater than 10000 nM. Further, the “BAF3-FGFR4 pIC50” value in assay [2] is 7.92.

For the compound `COc1cc(OC)c(F)c(N(Cc2ncc[nH]2)c2ccc3ncc(-c4ccncc4)nc3n2)c1` [Compound 211], the IC50 at FGFR1 (h) was 1 nM; in assay [1], greater than 10000 nM. In assay [2], the “BAF3-FGFR4 pIC50” value is recorded as 7.29.

Regarding `COc1cc(OC)cc(N(CCO)c2ccc3ncc(-c4ccncc4)nc3n2)c1` [Compound 213], the values for the IC50 (at FGFR1 (h); in assay [1]) were 4.27 nM and greater than 10000 nM, respectively. Further, in assay [2], the “BAF3-FGFR4 pIC50” value is given as 6.15.

As to `COC(=O)CN(c1ccc2ncc(-c3cnn(C)c3)nc2n1)c1cc(OC)cc(OC)c1F` [Compound 214], the IC50 on FGFR1 (h) was 2.4 nM; in assay [1], greater than 10000 nM. Further, the “BAF3-FGFR4 pIC50” value in assay [2] turned out to be 6.52.

In the case of `COc1cc(OC)c(F)c(N(Cc2ncc[nH]2)c2ccc3ncc(N4CCOCC4)nc3n2)c1F` [Compound 215], the results for the IC50 (at FGFR1 (h); in assay [1]) were 0.741 nM and greater than 10000 nM, respectively. Also, in assay [2], the “BAF3-FGFR4 pIC50” value worked out at 7.54.

With `COc1cc(OC)c(F)c(N(Cc2nc(OC)cc(OC)n2)c2ccc3ncc(-c4cnn(C)c4)nc3n2)c1` [Compound 220], the IC50 was 4.17 nM on FGFR1 (h) and greater than 10000 nM in assay [1]. Further, in assay [2], the “BAF3-FGFR4 pIC50” value came to 5.83.

Turning to `COc1cc(OC)c(F)c(N(CCNC2COC2)c2ccc3ncc(-c4cnn(C)c4)nc3n2)c1` [Compound 221], the IC50 was 1.51 nM at FGFR1 (h) and greater than 10000 nM in assay [1]. For the same compound, the “BAF3-FGFR4 pIC50” value in assay [2] was 6.98.

For `COc1cc(OC)c(F)c(N(CCN(C2COC2)C2COC2)c2ccc3ncc(-c4cnn(C)c4)nc3n2)c1` [Compound 222], the IC50 was 2.24 nM on FGFR1 (h) and greater than 10000 nM in assay [1]. The “BAF3-FGFR4 pIC50” value in assay [2] worked out at 6.55.

For `CCn1cc(-c2cnc3ccc(N(Cc4ncc[nH]4)c4cc(OC)cc(OC)c4F)nc3n2)cn1` [Compound 223], the IC50 is 0.55 nM on FGFR1 (h) and greater than 10000 nM in assay [1]. Also, the “BAF3-FGFR4 pIC50” value in assay [2] amounted to 7.95.
